Like-named read-outs stand apart in the source and are kept apart here. Blank lines part the entries; values can stand above or below the compound they belong to.
What was measured:
[1] = Bidirectional permeability across Caco-2 cell monolayers; settings: human
Procedure: (§1) Bidirectional permeability was assessed across Caco-2 cell monolayers as described previously. Briefly, permeability experiments were performed using either aqueous transport buffer (pH 7.4 Hanks balanced salt solution containing 20 mM HEPES) or human plasma (Australian Red Cross Blood Service) in both the apical and basolateral chambers. […] The final DMSO concentration in the donor solution was 0.1% v/v.
(§2) Samples from the donor chamber were taken at the start and end of the experiment. […] Donor and acceptor samples were stored frozen at − 80 °C until analysis by LC–MS (Additional file 1: Table S2) with sample preparation as described previously. The mass balance and apparent permeability coefficient (Papp) were calculated as previously described.
(§3) Where human plasma was used as the transport medium, Papp values were calculated as shown above, with correction for the fraction unbound (fu) in the donor solution Cdonorinitial×fu with fu determined at a similar concentration to that used in the transport experiment. The apparent flux of lucifer yellow was based on an endpoint measurement assuming no lag time. The efflux ratio was calculated as the ratio of the mean B–A to A–B Papp values.

[2] = Binding in DMEM with 10% FCS via ultracentrifugation; assay type: in vitro ADME, calf; settings: bovine, pH 7.4
Procedure: Dulbecco’s Modified Eagle’s Medium (DMEM) containing GlutaMAX-I was purchased from Invitrogen (Thermo Fisher Scientific) and stored at 4 °C. Medium was prepared by adding heat inactivated foetal calf serum (FCS, final 10% v/v), penicillin (final 100 U/mL), streptomycin (final 100 µg/mL) D-glucose (final 4.0 mg/mL) and sodium pyruvate (final 0.1 mg/mL).
An ultracentrifugation method adapted from a previous publication was initially used to assess plasma protein binding and binding in the other media. […] Additional ultracentrifuge tubes containing spiked matrix were maintained at 37 °C, 5% or 10% CO2 or normal atmosphere conditions, with aliquots being taken within 0.5 h of the start and at the end of ultracentrifugation to serve as controls for the assessment of stability and to obtain a measure of the total concentration (Ctotal). Following ultracentrifugation, the pH was checked and an aliquot of protein-free supernate was taken from each ultracentrifuge tube for determination of the unbound concentration (Cunbound).
Total matrix and protein free samples were analysed using a matrix matching approach whereby each sample was mixed in a 1:1 ratio with the opposite blank medium (i.e. blank total matrix or blank protein free buffer). For example, plasma samples were mixed with blank pH 7.4 buffer whereas plasma supernatant samples were mixed with blank plasma. Each of the sample sets were then assayed against a common calibration curve prepared in a 1:1 mixture of total matrix and protein free pH 7.4 buffer. […] The standard deviation for fu was calculated using the propagation of errors approach as described previously. The potential for compound degradation was assessed by comparing the average value for Ctotal at the start and end of the experiment.

[3] = Blood to plasma partitioning; assay type: in vitro ADME, human; settings: human, whole blood, pH 7.4, human whole blood, 37 °C; read-out: B/P (whole blood to plasma partitioning ratio)
Procedure: Human whole blood was collected and supplied by the Volunteer Blood Donor Registry (Clinical Translation Centre, Walter & Eliza Hall Institute of Medical Research, Parkville, Australia) and used on the day of collection. The haematocrit (Hct) was determined by centrifugation (13,000×g for 3 min using Clemets® Microhaematocrit centrifuge and Safecap® Plain Self-sealing Mylar wrapped capillary tubes) to ensure it was between 0.40 and 0.48. An aliquot was centrifuged (Heraeus, Multifuge 3 S-R; 4500×g) for 10 min to obtain plasma required for matrix matching purposes as described below.
Two aliquots of the spiked whole blood were transferred to fresh microcentrifuge tubes and maintained at 37 °C/5% CO2 in a humidified incubator. The pH was confirmed to be 7.4 ± 0.1 at the start and end of the incubation. At each time point (30 min and 4 h), one whole blood tube was removed from the incubator and mixed by gentle inversion, after which four replicate blood samples were taken and matrix matched with an equal volume of blank plasma. The remainder of the blood sample was centrifuged (Eppendorf, Mini Spin plus; 6700×g) for 2 min for the collection of 4 replicate plasma samples which were similarly matrix matched with an equal volume of blank whole blood. The 1:1 mixtures of blood/plasma were mixed, snap frozen in dry ice and stored at − 80 °C until analysis by LC–MS (Additional file 1: Table S2) against calibration standards prepared in the same mixed matrix. Any further distribution of compound into RBCs at this stage was irrelevant as the cells were lysed during the sample preparation and the total concentration in the mixed matrix was measured for both the calibration standards and samples.
The apparent whole blood-to-plasma partitioning ratio (B/P) was calculated as the ratio of the average concentration in the blood sample to that in the plasma fraction of the same whole blood sample. A standard deviation (SD) for each B/P value was calculated using the propagation of errors approach as described previously.

Caco-2 cell monolayers [4] = settings: cited from earlier work; for Literature ER: Caco-2, ref [33], [35] of Additional file 1; for Literature Papp: Caco-2 A-B, ref [33]–[35] of Additional file 1; for A–B Papp / B–A Papp: matrix: human plasma, corrected for fu
Caco-2 cell monolayers [5] = assay: Bidirectional permeability across Caco-2 cell monolayers; settings: matrix: pH 7.4 buffer
Procedure: as §1, §2, §3

[6] = Caco-2, A–B Papp, matrix: human plasma, corrected for fu
[7] = Caco-2, pH 7.4, A–B Papp, matrix: pH 7.4 buffer

Structure (SMILES): CC1(C)c2nc(-c3ccc(F)cc3)c(Nc3ccc(F)cc3)n2CCN1C(=O)CN [KAF156]
Papp B→A ([1]; Caco-2): 2300 ± 170 nm/s
Papp A→B [1, 6]: 470 ± 76 nm/s
fraction unbound at […], 1000 ng/mL ([2]; DMEM with 10% FCS): 0.477 ± 0.032

Structure (SMILES): CCCCN(CCCC)CC(O)c1cc(Cl)cc2c1-c1ccc(Cl)cc1/C2=C/c1ccc(Cl)cc1 (stereo not drawn) [Lumefantrine]
blood plasma ratio at 1000 ng/mL [3]: 0.48 ± 0.09

Structure (SMILES): CS(=O)(=O)c1ccc(-c2cnc(N)c(-c3ccc(C(F)(F)F)nc3)c2)cc1 [MMV048]
Papp B→A ([1]; Caco-2, pH 7.4): 530 ± 19 nm/s
Papp A→B [1, 7]: 410 ± 21 nm/s
fraction unbound at […], 1000 ng/mL ([2]; DMEM with 10% FCS): 0.653 ± 0.06

Structure (SMILES): Cc1nc(Nc2ncc(N3CCN(C)[C@H](C)C3)c(Nc3cc(C)n(C)n3)n2)cc(C2CC2)c1F [MMV253]
Papp B→A ([1]; Caco-2): 1500 ± 230 nm/s
efflux ratio ([1]; Caco-2): 1
Papp A→B [1, 6]: 1500 ± 290 nm/s
blood plasma ratio at 1000 ng/mL [3]: 1 ± 0.05

Structure (SMILES): OC(c1cc(C(F)(F)F)nc2c(C(F)(F)F)cccc12)C1CCCCN1 (stereo not drawn) [Mefloquine]
Literature ER (Caco-2 cell monolayers [4]): 0.7
Literature Papp (Caco-2 cell monolayers [4]): 9.9 ± 0.7 10-6 cm/sec
A–B Papp (Caco-2 cell monolayers [4]): 180 ± 20 10^−6 cm/s
B–A Papp (Caco-2 cell monolayers [4]): 150 ± 10 10^−6 cm/s

Structure (SMILES): CC(C)(N)CNC(=O)C[C@H]1CC[C@]2(CC1)OO[C@]1(O2)C2CC3CC(C2)CC1C3 [OZ277, Arterolane]
Papp B→A ([1]; Caco-2): 700 ± 3.8 nm/s
Papp A→B [1, 6]: 420 ± 28 nm/s

Structure (SMILES): Clc1ccc2c(N3CCN(CCCN4CCN(c5ccnc6cc(Cl)ccc56)CC4)CC3)ccnc2c1 [Piperaquine]
fraction unbound at […], 1000 ng/mL ([2]; DMEM with 10% FCS): 0.092 ± 0.003
blood plasma ratio at 1000 ng/mL [3]: 0.57 ± 0.05
A–B Papp (Caco-2 cell monolayers [4]): > 300 10^−6 cm/s
B–A Papp (Caco-2 cell monolayers [4]): > 300 10^−6 cm/s

Papp A→B ([1]; Caco-2, pH 7.4): 290 ± 45 nm/s
Papp B→A ([1]; Caco-2, pH 7.4): 340 ± 15 nm/s
fraction unbound at […], 1000 ng/mL [2]: 0.78 ± 0.025
Structure (SMILES): COc1cc(NC(C)CCCN)c2ncccc2c1 (stereo not drawn) [Primaquine]

Structure (SMILES): [H]/N=C(\N/C(=N/[H])Nc1ccc(Cl)cc1)NC(C)C [Proguanil]
Papp B→A ([1]; Caco-2, pH 7.4): 79 ± 5.1 nm/s
Papp A→B [1, 7]: < 50 nm/s
A–B Papp (Caco-2 cell monolayers [5]): 3.5 ± 0.75 10^−6 cm/s

Structure (SMILES): CCc1nc(N)nc(N)c1-c1ccc(Cl)cc1 [Pyrimethamine]
Papp A→B ([1]; Caco-2, pH 7.4): 600 ± 56 nm/s
Papp B→A ([1]; Caco-2, pH 7.4): 590 ± 29 nm/s
fraction unbound at […], 1000 ng/mL ([2]; DMEM with 10% FCS): 0.48 ± 0.034

Structure (SMILES): COc1ccc2nc3cc(Cl)ccc3c(Nc3cc(CN4CCCC4)c(O)c(CN4CCCC4)c3)c2n1 [Pyronaridine]
Papp B→A ([1]; Caco-2): 410 ± 30 nm/s
efflux ratio ([1]; Caco-2): 2.6
Papp A→B [1, 6]: 160 ± 22 nm/s
blood plasma ratio at 1000 ng/mL [3]: 9 ± 0.83
Literature ER (Caco-2 cell monolayers [4]): 1.8
Literature Papp (Caco-2 cell monolayers [4]): 10.3 ± 0.3 10-6 cm/sec

Structure (SMILES): N#Cc1cc(NC(=O)[C@H]2c3ccccc3C(=O)N(CC(F)(F)F)[C@@H]2c2cccnc2)ccc1F [SJ733]
Papp B→A ([1]; Caco-2, pH 7.4): 500 ± 20 nm/s
Papp A→B [1, 7]: 140 nm/s
A–B Papp (Caco-2 cell monolayers [5]): 13.4 10^−6 cm/s

Structure (SMILES): COc1ncnc(NS(=O)(=O)c2ccc(N)cc2)c1OC [Sulfadoxine]
Papp B→A ([1]; Caco-2, pH 7.4): 230 ± 28 nm/s
Papp A→B [1, 7]: 150 ± 25 nm/s
fraction unbound at […], 1000 ng/mL ([2]; DMEM with 10% FCS): 0.86 ± 0.044

Papp A→B [1, 6]: > 3000 nm/s
fraction unbound at […], 1000 ng/mL ([2]; DMEM with 10% FCS): 0.038 ± 0.001
blood plasma ratio at 1000 ng/mL [3]: 1.3 ± 0.04
Structure (SMILES): COc1cc(C)c2c(Oc3cccc(C(F)(F)F)c3)c(OC)cc(NC(C)CCCN)c2n1 (stereo not drawn) [Tafenoquine]

Reference: paper PMC6941357, “An in vitro toolbox to accelerate anti-malarial drug discovery and development” (Malaria Journal, 2020)
